From US10329309B2, “3-(3H-imidazo[4,5-B]pyridin-2-yl)-1H-pyrazolo[4,3-B]pyridines and therapeutic uses thereof” (Samumed, LLC, priority 2015, dated 2019)

Tests used:
Format in all cases: cell-based
[1] = test system: primary human fibroblasts derived from IPF patients (LL29 cells), α-smooth muscle actin (αSMA); assay: Inhibition of the fibrotic process: TGF-β1-treated primary human fibroblasts from IPF patients, αSMA staining; conditions: Fibroblast, 96 h, 4 days; for EC50: LL29 fibroblasts from IPF patients, TGF-β1 20 ng/mL, inhibition of fibrotic process; for inhibition at 10 µM: LL29 fibroblasts, TGF-β1 treated, read-out: percent inhibition at 10 μM (given for EC50 of >10 μM)
Outline: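 LL29 IPF-patient lung fibroblasts in 1% FBS F12 were given compounds (11-point, 10 μM to […], 0.1% DMSO) plus TGF-β1 20 ng/mL for 4 days at 37 °C. αSMA-positive fraction of live (SYTOX-negative) cells was imaged and normalized to TGF-β1/DMSO wells. EC50 by non-linear regression, or % inhibition at 10 μM if >10 μM.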

[2] = test system: Wnt activity (Sp5-Luc reporter, SW480 colon carcinoma cells); assay: Screening assay for Wnt activity: Sp5-Luc reporter gene assay in SW480 cells; conditions: Homo sapiens, overnight incubation, 10-point dose-response from 10 μM
Outline: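 SW480 cells stably carrying Sp5-Luc reporter (eight TCF/LEF sites) plated at 4,000/well in 1% FBS medium with compound (10-point 1:3 series from 10 μM, 0.1% DMSO) overnight at 37 °C. BrightGlo luminescence normalized to DMSO; EC50 by four-parameter fit, else % inhibition at 10 μM.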

[3] = test system: SW480 colon cancer cells; assay: Cell viability assay (CellTiter-Blue), four days; conditions: Homo sapiens, 96 h; for EC50: CellTiter-Blue cell viability; for inhibition at 10 µM: read-out: percent inhibition at 10 μM (given for EC50 of >10 μM)
Outline: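 SW480 colon cancer cells (~2×10^3/well) exposed to 8-point 1:3 dilutions from 10 μM to 0.0045 μM for four days at 37 °C/5% CO2. Viability read by resazurin (CellTiter-Blue) fluorescence after ~3 h, Ex 560/Em 590 nm. EC50 from non-linear regression; percent inhibition at 10 μM given when EC50 >10 μM.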

## CN(C)Cc1cncc(-c2ccc3[nH]nc(-c4nc5c(-c6cccc(F)c6)ccnc5[nH]4)c3n2)c1 [Compound 13, 1-(5-(3-(7-(3-fluorophenyl)-3H-imidazo[4,5-b]pyridin-2-yl)-1H-pyrazolo [4,3-b]pyridin-5-yl)pyridin-3-yl)-N,N-dimethylmethanamine]
[1]
  EC50: 1.44 µM
[2]
  EC50: 2.88 µM
[3]
  EC50: 1.13 µM

## CC(C)CC(=O)Nc1cncc(-c2ccc3[nH]nc(-c4nc5c(-c6ccc(Cl)s6)ccnc5[nH]4)c3n2)c1 [Compound 1037, N-(5-(3-(7-(5-chlorothiophen-2-yl)-3H-imidazo[4,5-b]pyridin-2-yl)-1H-pyrazolo [4,3-b]pyridin-5-yl)pyridin-3-yl)-3-methylbutanamide]
[1]
  EC50: 0.511 µM
[2]
  EC50: 1.49 µM
[3]
  EC50: 0.11 µM

## CC(C)Nc1cncc(-c2ccc3[nH]nc(-c4nc5c(-c6cc(F)cc(NCCN(C)C)c6)ccnc5[nH]4)c3n2)c1 [Compound 460, N^1-(3-fluoro-5-(2-(5-(5-(isopropylamino)pyridin-3-yl)-1H-pyrazolo[4,3-b]pyridin-3-yl)-3H-imidazo[4,5-b]pyridin-7-yl)phenyl)-N^2,N^2-dimethylethane-1,2-diamine]
[1]
  EC50: 2.45 µM
[2]
  EC50: 1.18 µM
[3]
  EC50: 0.695 µM

## FC1(F)CCN(Cc2cncc(-c3ccc4[nH]nc(-c5nc6c(-c7ccsc7)ccnc6[nH]5)c4n3)c2)C1 [Compound 306, 5-(5-((3,3-difluoropyrrolidin-1-yl)methyl)pyridin-3-yl)-3-(7-(thiophen-3-yl)-3H-imidazo[4,5-b]pyridin-2-yl)-1H-pyrazolo[4,3-b]pyridine]
[1]
  EC50: 0.165 µM
[2]
  EC50: 0.533 µM
[3]
  EC50: 0.58 µM

## CCCC(=O)Nc1cncc(-c2ccc3[nH]nc(-c4nc5c(-c6ccsc6)ccnc5[nH]4)c3n2)c1 [Compound 297, N-(5-(3-(7-(thiophen-3-yl)-3H-imidazo[4,5-b]pyridin-2-yl)-1H-pyrazolo[4,3-b]pyridin-5-yl)pyridin-3-yl)butyramide]
[1]
  EC50: 0.41 µM
[2]
  EC50: 0.822 µM
[3]
  EC50: 2.64 µM

## Cc1ccncc1-c1ccc2[nH]nc(-c3nc4c(-c5cc(F)cc(CNS(C)(=O)=O)c5)ccnc4[nH]3)c2n1 [Compound 481, N-(3-fluoro-5-(2-(5-(4-methylpyridin-3-yl)-1H-pyrazolo[4,3-b]pyridin-3-yl)-3H-imidazo[4,5-b]pyridin-7-yl)benzyl)methanesulfonamide]
[1]
  EC50: 5.19 µM
[2]
  EC50: 1.25 µM
[3]
  EC50: 5.57 µM

## COc1cccc(-c2ccnc3[nH]c(-c4n[nH]c5ccc(-c6cncc(NC(=O)Cc7ccccc7)c6)nc45)nc23)c1 [Compound 1000, N-(5-(3-(7-(3-methoxyphenyl)-3H-imidazo[4,5-b]pyridin-2-yl)-1H-pyrazolo[4,3-b]pyridin-5-yl)pyridin-3-yl)-2-phenylacetamide]
[1]
  EC50: > 10 µM
  inhibition at 10 µM: 23.4%
[2]
  EC50: 2.8 µM
[3]
  EC50: 1.1 µM

## c1cncc(-c2ccc3[nH]nc(-c4nc5c(-c6cccnc6)ccnc5[nH]4)c3n2)c1 [Compound 88, 5-(pyridin-3-yl)-3-(7-(pyridin-3-yl)-3H-imidazo[4,5-b]pyridin-2-yl)-1H-pyrazolo [4,3-b]pyridine]
[1]
  EC50: 0.747 µM
[2]
  EC50: 1.6 µM
[3]
  EC50: > 10 µM
  inhibition at 10 µM: 42.2%

## Fc1ccccc1-c1ccnc2[nH]c(-c3n[nH]c4ccc(-c5ccccn5)nc34)nc12 [Compound 84, 3-(7-(2-Fluorophenyl)-3H-imidazo[4,5-b]pyridin-2-yl)-5-(pyridin-2-yl)-1H-pyrazolo[4,3-b]pyridine]
[1]
  EC50: > 10 µM
  inhibition at 10 µM: 29.4%
[2]
  EC50: 0.67 µM
[3]
  EC50: > 10 µM
  inhibition at 10 µM: 0%

## NC1CN(c2cncc(-c3ccc4[nH]nc(-c5nc6c(-c7ccc(Cl)s7)ccnc6[nH]5)c4n3)n2)C1 [Compound 1068, 1-(6-(3-(7-(5-Chlorothiophen-2-yl)-3H-imidazo[4,5-b]pyridin-2-yl)-1H-pyrazolo[4,3-b]pyridin-5-yl)pyrazin-2-yl)azetidin-3-amine]
[1]
  EC50: 0.938 µM
[2]
  EC50: 2.3 µM
[3]
  EC50: > 10 µM
  inhibition at 10 µM: 17.8%

## Cc1ccncc1-c1ccc2[nH]nc(-c3nc4c(-c5ccsc5)ccnc4[nH]3)c2n1 [Compound 285, 5-(4-methylpyridin-3-yl)-3-(7-(thiophen-3-yl)-3H-imidazo[4,5-b]pyridin-2-yl)-1H-pyrazolo[4,3-b]pyridine]
[1]
  EC50: 2.05 µM
[2]
  EC50: 0.865 µM
[3]
  EC50: 0.944 µM

## CCNCc1cncc(-c2ccc3[nH]nc(-c4nc5c(-c6ccoc6)ccnc5[nH]4)c3n2)c1 [Compound 314, N-((5-(3-(7-(furan-3-yl)-3H-imidazo[4,5-b]pyridin-2-yl)-1H-pyrazolo[4,3-b]pyridin-5-yl)pyridin-3-yl)methyl)ethanamine]
[1]
  EC50: > 10 µM
  inhibition at 10 µM: 0%
[2]
  EC50: 3.83 µM
[3]
  EC50: 2.82 µM

## CN(C)CC(=O)Nc1cncc(-c2ccc3[nH]nc(-c4nc5c(-c6cccc(F)c6)ccnc5[nH]4)c3n2)c1 [Compound 969, 2-(dimethylamino)-N-(5-(3-(7-(3-fluorophenyl)-3H-imidazo[4,5-b]pyridin-2-yl)-1H-pyrazolo[4,3-b]pyridin-5-yl)pyridin-3-yl)acetamide]
[1]
  EC50: 4.93 µM
[2]
  EC50: 4.36 µM
[3]
  EC50: > 10 µM
  inhibition at 10 µM: 27.7%

## O=C(Nc1cncc(-c2ccc3[nH]nc(-c4nc5c(-c6ccc(Cl)s6)ccnc5[nH]4)c3n2)c1)C1CCC1 [Compound 1056, N-(5-(3-(7-(5-chlorothiophen-2-yl)-3H-imidazo[4,5-b]pyridin-2-yl)-1H-pyrazolo [4,3-b]pyridin-5-yl)pyridin-3-yl)cyclobutanecarboxamide]
[1]
  EC50: 0.284 µM
[2]
  EC50: 0.354 µM
[3]
  EC50: 0.109 µM

## CC(C)Nc1cncc(-c2ccc3[nH]nc(-c4nc5c(-c6cccnc6)ccnc5[nH]4)c3n2)c1 [Compound 96, N-isopropyl-5-(3-(7-(pyridin-3-yl)-3H-imidazo[4,5-b]pyridin-2-yl)-1H-pyrazolo[4,3-b]pyridin-5-yl)pyridin-3-amine]
[1]
  EC50: 1.77 µM
[2]
  EC50: 1.96 µM
[3]
  EC50: 2 µM

## CN(C)c1cncc(-c2ccc3[nH]nc(-c4nc5c(-c6cccc(F)c6)ccnc5[nH]4)c3n2)c1 [Compound 7, 5-(3-(7-(3-fluorophenyl)-3H-imidazo[4,5-b]pyridin-2-yl)-1H-pyrazolo[4,3-b]pyridin-5-yl)-N,N-dimethylpyridin-3-amine]
[1]
  EC50: 2.17 µM
[2]
  EC50: 0.929 µM
[3]
  EC50: 0.54 µM

## Cc1ccc(-c2ccnc3[nH]c(-c4n[nH]c5ccc(-c6cncc(NC(=O)C(C)C)c6)nc45)nc23)s1 [Compound 401, N-(5-(3-(7-(5-methylthiophen-2-yl)-3H-imidazo[4,5-b]pyridin-2-yl)-1H-pyrazolo[4,3-b]pyridin-5-yl)pyridin-3-yl)isobutyramide]
[1]
  EC50: 0.158 µM
[2]
  EC50: 0.565 µM
[3]
  EC50: 0.27 µM

## Cc1ncc(-c2ccc3[nH]nc(-c4nc5c(-c6cccc(F)c6)ccnc5[nH]4)c3n2)n1C [Compound 509, 5-(1,2-dimethyl-1H-imidazol-5-yl)-3-(7-(3-fluorophenyl)-3H-imidazo[4,5-b]pyridin-2-yl)-1H-pyrazolo[4,3-b]pyridine]
[1]
  EC50: > 10 µM
  inhibition at 10 µM: 0%
[2]
  EC50: 0.12 µM
[3]
  EC50: 0.115 µM

## O=C(Nc1cncc(-c2ccc3[nH]nc(-c4nc5c(-c6ccc(F)cc6)ccnc5[nH]4)c3n2)c1)C1CCC1 [Compound 49, N-(5-(3-(7-(4-fluorophenyl)-3H-imidazo[4,5-b]pyridin-2-yl)-1H-pyrazolo [4,3-b]pyridin-5-yl)pyridin-3-yl)cyclobutanecarboxamide]
[1]
  EC50: 1.37 µM
[2]
  EC50: 0.908 µM
[3]
  EC50: 0.551 µM

## CC(C)(C)C(=O)Nc1cncc(-c2ccc3[nH]nc(-c4nc5c(-c6ccc(Cl)s6)ccnc5[nH]4)c3n2)c1 [Compound 1043, N-(5-(3-(7-(5-chlorothiophen-2-yl)-3H-imidazo[4,5-b]pyridin-2-yl)-1H-pyrazolo [4,3-b]pyridin-5-yl)pyridin-3-yl)pivalamide]
[1]
  EC50: 0.419 µM
[2]
  EC50: 0.644 µM
[3]
  EC50: > 10 µM
  inhibition at 10 µM: 14.5%
